For 18 compounds, IC50 results are on record in patent US20100048597A1 (Novartis AG, priority 2006, published 2010).

Read-outs that look alike come from different tables or passages of the source.

The target in one assay is T1, CDK7/cyclinH/MAT1 (Homo sapiens, UniProt P50613).
T1 construct: purchased Millipore
Nature of the assay: CDK7/cyclinH/Mat1 kinase assay, IMAP fluorescence polarization. Format: biochemical. Here is the method:
Kinase assays were performed on recombinant purified enzymes using the non-radioactive IMAP fluorescence polarization assay format.
Compound stocks were prepared and diluted in DMSO and were added to kinase reactions at a 1/100 dilution for a final concentration of 1% DMSO. The components were added together to final concentrations listed in the tables below and incubated for two hours at room temperature.
The reactions were stopped by addition of stop solution.
CDK9/CDK1/CDK7: final stop concentration is 1× Developer buffer (85% A/15% B), IMAP beads 1/400
The samples were allowed to incubate for one more hour at room temperature and then the fluorescence polarization was measured. The plate normalized millipolarization (mP) values were plotted against the log of compound concentration for each compound and IC50 values were calculated using the spotfire IC50 calculator and confirmed by visual analysis.

Another assay deals with T2, CDK1/cyclinB (Homo sapiens, UniProt P06493).
T2 construct: purchased Millipore
T2 sequence (P06493 whole entry): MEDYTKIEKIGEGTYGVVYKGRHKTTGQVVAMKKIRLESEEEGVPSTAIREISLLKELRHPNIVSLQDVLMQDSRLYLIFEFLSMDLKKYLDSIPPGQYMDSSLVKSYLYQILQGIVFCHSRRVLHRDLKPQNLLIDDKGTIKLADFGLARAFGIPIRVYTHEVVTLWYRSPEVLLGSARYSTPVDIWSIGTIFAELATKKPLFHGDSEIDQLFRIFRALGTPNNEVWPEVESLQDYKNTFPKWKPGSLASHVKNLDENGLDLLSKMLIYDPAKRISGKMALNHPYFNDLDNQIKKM
T2 sequence (P14635 whole entry partner): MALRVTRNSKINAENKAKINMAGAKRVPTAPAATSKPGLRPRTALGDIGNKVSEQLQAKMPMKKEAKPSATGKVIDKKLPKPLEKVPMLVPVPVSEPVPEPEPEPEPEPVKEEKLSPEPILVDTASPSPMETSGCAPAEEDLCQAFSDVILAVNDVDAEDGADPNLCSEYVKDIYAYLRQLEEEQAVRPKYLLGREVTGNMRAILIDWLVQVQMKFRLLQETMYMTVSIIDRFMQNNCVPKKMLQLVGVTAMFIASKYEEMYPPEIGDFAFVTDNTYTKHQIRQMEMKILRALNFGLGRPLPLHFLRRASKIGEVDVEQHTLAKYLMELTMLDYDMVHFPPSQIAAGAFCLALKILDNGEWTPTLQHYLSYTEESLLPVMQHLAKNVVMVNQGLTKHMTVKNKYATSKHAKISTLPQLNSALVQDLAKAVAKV
Nature of the assay: CDK1/cyclinB kinase assay, IMAP fluorescence polarization. Format: biochemical. Put shortly:
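IMAP fluorescence polarization assay on recombinant purified enzyme, compounds at final 1% DMSO. Reaction run 2 h at room temperature, stopped, held 1 h more before reading polarization.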
Background: Polarisation of emitted light reports the rotation of a fluorescent probe.

For another assay, the target named is CDK5 (Homo sapiens, UniProt Q00535). Briefly: CDK5 kinase assay (Table F). Format: biochemical.
CDK5, sequence (Q00535 whole entry, species assumed): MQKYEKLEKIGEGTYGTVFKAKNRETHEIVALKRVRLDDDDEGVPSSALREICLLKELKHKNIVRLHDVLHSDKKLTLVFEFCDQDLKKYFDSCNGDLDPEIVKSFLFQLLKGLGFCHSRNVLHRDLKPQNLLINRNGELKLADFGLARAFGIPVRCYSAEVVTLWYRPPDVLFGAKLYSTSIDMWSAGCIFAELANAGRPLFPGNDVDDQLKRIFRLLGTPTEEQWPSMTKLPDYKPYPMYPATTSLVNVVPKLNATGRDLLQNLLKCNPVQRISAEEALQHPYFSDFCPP
CDK5, sequence (Q15078 whole entry partner, species assumed): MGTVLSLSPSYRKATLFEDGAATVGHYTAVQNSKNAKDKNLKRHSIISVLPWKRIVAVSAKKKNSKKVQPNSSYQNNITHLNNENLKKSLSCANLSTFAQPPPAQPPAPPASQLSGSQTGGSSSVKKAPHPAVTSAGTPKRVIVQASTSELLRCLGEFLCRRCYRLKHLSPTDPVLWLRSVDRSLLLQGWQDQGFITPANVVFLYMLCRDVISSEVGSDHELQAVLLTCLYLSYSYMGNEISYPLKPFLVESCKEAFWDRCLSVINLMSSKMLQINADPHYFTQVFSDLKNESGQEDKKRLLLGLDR
A further assay has as its target T3, CDK9/cyclinT1 (Homo sapiens, UniProt P50750).
T3 construct: purchased Millipore
Briefly: CDK9/cyclinT1 kinase assay, IMAP fluorescence polarization. Format: biochemical. Put shortly:
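Recombinant purified enzyme complexes assayed by IMAP fluorescence polarization with 1% final DMSO, 2 h at room temperature; stopped with 1× Developer buffer (85% A/15% B) plus IMAP beads 1/400, then 1 h further at room temperature. IC50 from normalized mP versus log compound concentration.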

In a further assay the target is CDK4 (Homo sapiens, UniProt P11802). Briefly: CDK4 kinase assay (Table F). Format: biochemical.
CDK4, sequence (P11802 whole entry, species assumed): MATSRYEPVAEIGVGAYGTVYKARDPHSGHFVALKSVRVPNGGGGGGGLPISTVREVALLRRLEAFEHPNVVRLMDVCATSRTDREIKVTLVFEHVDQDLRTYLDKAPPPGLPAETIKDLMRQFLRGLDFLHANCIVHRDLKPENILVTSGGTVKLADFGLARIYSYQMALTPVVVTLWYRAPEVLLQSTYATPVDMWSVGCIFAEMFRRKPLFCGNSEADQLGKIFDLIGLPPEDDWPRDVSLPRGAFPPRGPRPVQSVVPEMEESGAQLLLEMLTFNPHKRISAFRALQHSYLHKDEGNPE
CDK4, sequence (P24385 whole entry partner, species assumed): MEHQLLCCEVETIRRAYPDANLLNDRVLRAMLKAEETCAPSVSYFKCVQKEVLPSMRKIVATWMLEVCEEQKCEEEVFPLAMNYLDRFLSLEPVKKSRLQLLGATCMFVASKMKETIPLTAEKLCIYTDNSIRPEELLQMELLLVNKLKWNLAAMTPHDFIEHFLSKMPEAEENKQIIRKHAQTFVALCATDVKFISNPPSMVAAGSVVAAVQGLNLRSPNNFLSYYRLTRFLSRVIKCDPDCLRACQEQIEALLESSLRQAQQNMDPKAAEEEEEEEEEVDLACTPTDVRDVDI
The target of another assay is T4, CDK2/cyclinA (Homo sapiens, UniProt P24941).
T4 construct: purchased Millipore
Briefly: CDK2/cyclinA kinase assay, IMAP fluorescence polarization. Format: biochemical. The essentials: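 Recombinant purified enzyme reactions run 2 hours at room temperature with 1% DMSO final. Stopped with 1× Developer buffer (100% A) and IMAP beads 1/400, then 1 hour more before fluorescence polarization read. IC50 from mP values versus log concentration.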

The subject of assay [1] is RNA Polymerase II CTD Serine2 Phosphorylation. Briefly: H5 (Ser2) Ab High Content Screen: RNA Polymerase II CTD Serine2 Phosphorylation Assay in Hep3B cells. Format: cell-based. The conditions noted are these: Homo sapiens, 2 hours with compound, H5 antibody staining. The procedure: H5 (also referred as Ser2) Ab High Content Screen: RNA Polymerase II CTD Serine2 Phosphorylation Assay
1. Cells are plated into 384 well plates: 30 μl of Hep3B cells (4,000 cells/30 μl) in DMEM with 3% FBS are plated into wells of a tissue culture treated clear bottomed 384 well plate. Cells are allowed to adhere during an overnight incubation.
2. Cells are treated with compounds for two hours: 10 μl of DMEM with 3% FBS is added to each well with a final concentration of DMSO equal to 1%. Cells are incubated with compounds for 2 hours.
3. Cells are fixed and permeabilized. Cells are washed with 30 mM HEPES pH=7.3 then fixed in 4% paraformaldehyde in 30 mM HEPES pH=7.3 for one hour at room temperature. The fix is removed by washing the cells with Tris buffered saline (TBS) and the cells are permeabilized by incubation in TBS with 0.5% triton X-100 for 30 minutes at room temperature. Triton is removed by washing the cells with TBS.
4. […] Incubate primary H5 Ab (1/250 ) overnight at 4 degrees in TBS with 1% BSA and 0.1% Tween-20. The next day wash cells with TBS. […] Wash cells with PBS.
5. Measure staining using the In-cell Analyzer system from GE Healthcare.

T3 sequence (P50750 whole entry): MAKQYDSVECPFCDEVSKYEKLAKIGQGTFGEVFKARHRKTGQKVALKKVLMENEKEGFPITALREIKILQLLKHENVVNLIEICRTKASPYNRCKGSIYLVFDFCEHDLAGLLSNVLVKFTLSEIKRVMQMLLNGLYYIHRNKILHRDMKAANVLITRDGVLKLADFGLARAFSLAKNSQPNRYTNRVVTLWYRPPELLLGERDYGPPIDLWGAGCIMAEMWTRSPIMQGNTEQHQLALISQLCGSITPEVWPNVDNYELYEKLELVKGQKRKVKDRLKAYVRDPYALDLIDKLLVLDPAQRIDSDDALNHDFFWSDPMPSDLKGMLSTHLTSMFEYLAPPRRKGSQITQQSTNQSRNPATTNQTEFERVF
T3 sequence (O60563 whole entry partner): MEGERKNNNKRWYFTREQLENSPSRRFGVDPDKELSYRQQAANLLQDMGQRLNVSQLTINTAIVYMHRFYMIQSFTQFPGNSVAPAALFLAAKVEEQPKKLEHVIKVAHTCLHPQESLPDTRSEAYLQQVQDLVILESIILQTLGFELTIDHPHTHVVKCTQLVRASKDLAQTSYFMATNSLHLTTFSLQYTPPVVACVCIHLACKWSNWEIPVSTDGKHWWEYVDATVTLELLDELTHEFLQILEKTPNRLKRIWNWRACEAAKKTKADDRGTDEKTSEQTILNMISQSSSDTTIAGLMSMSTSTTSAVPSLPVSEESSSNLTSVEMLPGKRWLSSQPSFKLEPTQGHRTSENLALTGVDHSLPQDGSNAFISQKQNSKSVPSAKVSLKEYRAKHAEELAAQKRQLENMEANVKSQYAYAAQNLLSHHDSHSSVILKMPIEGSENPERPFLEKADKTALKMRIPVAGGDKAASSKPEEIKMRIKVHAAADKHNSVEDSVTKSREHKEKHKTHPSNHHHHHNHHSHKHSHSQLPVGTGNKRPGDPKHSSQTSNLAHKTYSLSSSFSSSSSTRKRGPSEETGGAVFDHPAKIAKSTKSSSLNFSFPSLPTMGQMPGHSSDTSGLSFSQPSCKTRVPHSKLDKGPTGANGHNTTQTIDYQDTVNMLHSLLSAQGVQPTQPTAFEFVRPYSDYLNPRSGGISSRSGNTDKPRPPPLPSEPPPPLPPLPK
T1 sequence (P50613 whole entry): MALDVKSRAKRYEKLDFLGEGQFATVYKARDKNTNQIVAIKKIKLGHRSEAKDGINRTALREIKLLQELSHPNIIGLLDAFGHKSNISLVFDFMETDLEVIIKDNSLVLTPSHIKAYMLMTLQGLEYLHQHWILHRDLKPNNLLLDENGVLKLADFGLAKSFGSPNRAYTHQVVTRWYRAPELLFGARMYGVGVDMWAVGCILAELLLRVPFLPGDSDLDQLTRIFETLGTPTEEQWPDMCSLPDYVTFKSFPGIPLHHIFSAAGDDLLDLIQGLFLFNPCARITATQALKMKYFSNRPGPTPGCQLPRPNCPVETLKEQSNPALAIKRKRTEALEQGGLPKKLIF
T1 sequence (P51946 whole entry partner): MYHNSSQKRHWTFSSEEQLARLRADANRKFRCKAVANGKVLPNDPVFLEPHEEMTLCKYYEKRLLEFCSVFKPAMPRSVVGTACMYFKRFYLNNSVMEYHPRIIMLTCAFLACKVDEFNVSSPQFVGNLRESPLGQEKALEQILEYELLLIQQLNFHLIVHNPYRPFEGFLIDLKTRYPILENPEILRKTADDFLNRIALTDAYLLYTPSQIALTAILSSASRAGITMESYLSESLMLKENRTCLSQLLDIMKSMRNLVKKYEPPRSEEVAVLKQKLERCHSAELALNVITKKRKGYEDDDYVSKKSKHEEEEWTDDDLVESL
T1 sequence (P51948 whole entry partner): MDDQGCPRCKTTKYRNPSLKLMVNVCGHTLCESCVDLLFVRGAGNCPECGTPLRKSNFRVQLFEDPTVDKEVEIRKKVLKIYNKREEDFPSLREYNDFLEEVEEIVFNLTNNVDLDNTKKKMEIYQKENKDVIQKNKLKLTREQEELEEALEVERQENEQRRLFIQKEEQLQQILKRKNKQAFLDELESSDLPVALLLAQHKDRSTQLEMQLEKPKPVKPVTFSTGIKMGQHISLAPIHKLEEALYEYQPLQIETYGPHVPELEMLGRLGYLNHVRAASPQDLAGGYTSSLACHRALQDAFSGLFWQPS

As for `CNCCNc1nccc(-c2ccnc(Nc3cccc(Cl)c3)n2)c1C` [Compound 3, N-{4-[2-(3-Chloro-phenylamino)-pyrimidin-4-yl]-3-methyl-pyridin-2-yl}-N′-methyl-ethane-1,2-diamine], the IC50 on CDK7/cyclinH/MAT1, on CDK1/cyclinB (read-out: CDK1 IC50), against CDK5, against CDK9/cyclinT1, against CDK4 and against CDK2/cyclinA was under 5 µM each time. Moreover, in assay [1], the 50% inhibitory concentration (IC50) – broadly, the concentration that gives 50% inhibition – was under 5 µM.

Turning to `CC(=O)NCCCNc1nccc(-c2ccnc(Nc3cccc(Cl)c3)n2)c1C` [Compound 6, N-(3-{4-[2-(3-Chloro-phenylamino)-pyrimidin-4-yl]-3-methyl-pyridin-2-ylamino}-propyl)-acetamide], the IC50 at CDK7/cyclinH/MAT1 is under 5 µM; on CDK1/cyclinB (read-out: CDK1 IC50), 5 to 15 µM; against CDK9/cyclinT1, under 5 µM; against CDK4, 5 to 15 µM; against CDK2/cyclinA, under 5 µM; in assay [1], 5 to 15 µM.

Regarding `Cc1c(-c2ccnc(Nc3cccc(Cl)c3)n2)ccnc1NCc1ccccc1` [Compound 21, [4-(2-Benzylamino-3-methyl-pyridin-4-yl)-pyrimidin-2-yl]-(3-chloro-phenyl)-amine], the IC50 at CDK1/cyclinB (read-out: CDK1 IC50) was under 5 µM; at CDK9/cyclinT1, under 5 µM; against CDK2/cyclinA, under 5 µM; in assay [1] it was 5 to 15 µM.

As for `Cc1c(-c2ccnc(Nc3cccc(Cl)c3)n2)ccnc1NCCCN1CCOCC1` [Compound 22, (3-Chloro-phenyl)-{4-[3-methyl-2-(3-morpholin-4-yl-propylamino)-pyridin-4-yl]-pyrimidin-2-yl}-amine], the IC50 on CDK1/cyclinB (read-out: CDK1 IC50) was 5 to 15 µM; against CDK9/cyclinT1, under 5 µM; at CDK2/cyclinA it was under 5 µM; in assay [1] it was 5 to 15 µM.

Consider `Cc1c(-c2ccnc(Nc3cccc(Cl)c3)n2)ccnc1NCCCn1ccnc1` [Compound 23, (3-Chloro-phenyl)-{4-[2-(3-imidazol-1-yl-propylamino)-3-methyl-pyridin-4-yl]-pyrimidin-2-yl}-amine], for which the IC50 on CDK1/cyclinB (read-out: CDK1 IC50) is 5 to 15 µM; on CDK5 it was under 5 µM; at CDK9/cyclinT1, under 5 µM; on CDK4 it was 15 to 50 µM; on CDK2/cyclinA, under 5 µM; in assay [1] it was 5 to 15 µM.

In the case of `Cc1c(-c2ccnc(Nc3cccc(Cl)c3)n2)ccnc1NCCCN1CCCC1=O` [Compound 24, 1-(3-{4-[2-(3-Chloro-phenylamino)-pyrimidin-4-yl]-3-methyl-pyridin-2-ylamino}-propyl)-pyrrolidin-2-one], the IC50 was 5 to 15 µM on CDK1/cyclinB (read-out: CDK1 IC50); 5 to 15 µM against CDK5; under 5 µM at CDK9/cyclinT1; under 5 µM against CDK2/cyclinA; 15 to 50 µM in assay [1].

`CC(=O)NCCCNc1cc(-c2ccnc(Nc3cccc(Cl)c3)n2)cc(C)n1` [Compound 42, N-(3-{4-[2-(3-Chloro-phenylamino)-pyrimidin-4-yl]-6-methyl-pyridin-2-ylamino}-propyl)-acetamide]: the IC50 (on CDK1/cyclinB (read-out: CDK1 IC50); on CDK9/cyclinT1; on CDK2/cyclinA; in assay [1]) was under 5 µM each time.

For `Clc1cccc(Nc2nccc(-c3ccnc4ccccc34)n2)c1` [Compound 48, (3-Chloro-phenyl)-(4-quinolin-4-yl-pyrimidin-2-yl)-amine], the IC50 at CDK1/cyclinB (read-out: CDK1 IC50) is under 5 µM; on CDK5, under 5 µM; against CDK9/cyclinT1, under 5 µM; on CDK4, 5 to 15 µM; in assay [1] it was under 5 µM.

With `CS(=O)(=O)c1cccc(Nc2nccc(-c3cccnc3NCCCN)n2)c1` [Compound 58, N-{3-[2-(3-Methanesulfonyl-phenylamino)-pyrimidin-4-yl]-pyridin-2-yl}-propane-1,3-diamine], the IC50 (at CDK1/cyclinB (read-out: CDK1 IC50); against CDK5; against CDK9/cyclinT1; against CDK4; at CDK2/cyclinA; in assay [1]) was under 5 µM in each case.

For `NCCCNc1ncccc1-c1ccnc(Nc2cccc(S(N)(=O)=O)c2)n1` [Compound 59, 3-{4-[2-(3-Amino-propylamino)-pyridin-3-yl]-pyrimidin-2-ylamino}-benzenesulfonamide], the half-inhibitory concentration (IC50) at CDK1/cyclinB (read-out: CDK1 IC50) was under 5 µM; at CDK5, under 5 µM; at CDK9/cyclinT1 it was under 5 µM; at CDK4, 5 to 15 µM; against CDK2/cyclinA, under 5 µM; in assay [1] it was 15 to 50 µM.

As for `CC(=O)NCCCNc1ncccc1-c1ccnc(Nc2cccc(Cl)c2)n1` [Compound 65, N-(3-{3-[2-(3-Chloro-phenylamino)-pyrimidin-4-yl]-pyridin-2-ylamino}-propyl)-acetamide], the 50% inhibitory concentration (IC50) is under 5 µM on CDK1/cyclinB (read-out: CDK1 IC50); under 5 µM against CDK5; under 5 µM against CDK9/cyclinT1; 15 to 50 µM against CDK4; under 5 µM at CDK2/cyclinA; under 5 µM in assay [1].

As for `CS(=O)(=O)NCCCNc1ncccc1-c1ccnc(Nc2cccc(Cl)c2)n1` [Compound 72, N-(3-{3-[2-(3-Chloro-phenylamino)-pyrimidin-4-yl]-pyridin-2-ylamino}-propyl)-methanesulfonamide], the IC50 at CDK1/cyclinB (read-out: CDK1 IC50) was under 5 µM; against CDK5, under 5 µM; against CDK9/cyclinT1, under 5 µM; against CDK4, 15 to 50 µM; on CDK2/cyclinA, under 5 µM; in assay [1] it was under 5 µM.

Regarding `CC(=O)NCC(C)(C)CNc1ncccc1-c1ccnc(Nc2cccc(Cl)c2)n1` [Compound 73, N-(3-{3-[2-(3-Chloro-phenylamino)-pyrimidin-4-yl]-pyridin-2-ylamino}-2,2-dimethyl-propyl)-acetamide], the IC50 on CDK1/cyclinB (read-out: CDK1 IC50) is under 5 µM; against CDK5, 5 to 15 µM; at CDK9/cyclinT1, under 5 µM; at CDK4, 15 to 50 µM; on CDK2/cyclinA it was under 5 µM; in assay [1], 5 to 15 µM.

For `NCCCCNc1ncccc1-c1ccnc(Nc2cccc(Cl)c2)n1` [Compound 84, N-{3-[2-(3-Chloro-phenylamino)-pyrimidin-4-yl]-pyridin-2-yl}-butane-1,4-diamine], the IC50 (on CDK1/cyclinB (read-out: CDK1 IC50); against CDK5; against CDK9/cyclinT1; against CDK4; against CDK2/cyclinA; in assay [1]) was under 5 µM throughout.

Consider `COc1ncccc1-c1ccnc(Nc2cccc(S(C)(=O)=O)c2)n1` [Compound 93, (3-Methanesulfonyl-phenyl)-[4-(2-methoxy-pyridin-3-yl)-pyrimidin-2-yl]-amine], for which the IC50 on CDK1/cyclinB (read-out: CDK1 IC50) was under 5 µM; on CDK5, under 5 µM; against CDK9/cyclinT1 it was under 5 µM; at CDK4, 15 to 50 µM; on CDK2/cyclinA, under 5 µM; in assay [1], under 5 µM.

Turning to `CCCCNS(=O)(=O)c1cccc(Nc2nccc(-c3cccnc3OC)n2)c1` [Compound 102, N-Butyl-3-[4-(2-methoxy-pyridin-3-yl)-pyrimidin-2-ylamino]-benzenesulfonamide], the IC50 is under 5 µM on CDK1/cyclinB (read-out: CDK1 IC50), under 5 µM against CDK9/cyclinT1, under 5 µM against CDK2/cyclinA and 15 to 50 µM in assay [1].

On to `COc1ncccc1-c1ccnc(Nc2cccc(-c3cnco3)c2)n1` [Compound 110, [4-(2-Methoxy-pyridin-3-yl)-pyrimidin-2-yl]-(3-oxazol-5-yl-phenyl)-amine], for which the half-maximal inhibitory concentration (IC50) (at CDK1/cyclinB (read-out: CDK1 IC50); on CDK9/cyclinT1; at CDK2/cyclinA; in assay [1]) was under 5 µM each time.

As to `COc1ncccc1-c1ccnc(Nc2ccc3cn[nH]c3c2)n1` [Compound 112, (1H-Indazol-6-yl)-[4-(2-methoxy-pyridin-3-yl)-pyrimidin-2-yl]-amine], the IC50 (at CDK1/cyclinB; on CDK9/cyclinT1; at CDK2/cyclinA; in assay [1]) was under 5 µM in each case.
